In patent US20060223884A1, “Compounds and compositions for use in the prevention and treatment of obesity and related syndromes” (priority 2005, published 2006):
Structures can show the parent of a compound that is named as a salt.

Assays:
[1] = Body weight gain and epididymal fat pad in the DIO mouse model, Compound 13e (Example 8); format: in vivo, C57BU6 mice; details: 25 or 50 mg/kg twice daily oral gavage, 21 days
Experimental: The objective of this study was to determine the effect of one analog according to the invention, namely Compound 13e, on body weight gain in the Diet-Induced Obesity (DIO) mouse model.
C57BU6 mice were received at 7-8 weeks of age and fed a high fat diet (60% of calories from fat) for 8 weeks. Fasted glycemia and body weight values were used to randomize the mice into control and treatment groups (n=8). The average basal glycemia was between 213 and 215 mg/dL for all groups. The animals were treated twice daily by oral gavage with Compound 13e (25 or 50 mg per kg of body weight), and the control group received vehicle (200 mM bicarbonate buffer/0.1% Tween-20™, pH =9) alone. The animals were treated for 21 days. Body weight of the mice was measured on a frequent basis during the treatment. At the end of the study, the epididymal fat pads were isolated and weighed. Data are expressed as mean±SEM of body weight and mean±SEM of fat pad weight.

[2] = Body weight of DIO mice, 4-hydroxyisoleucine and Rimonabant alone and in combination (Example 7); format: in vivo, C57BU6 mice; details: oral
Experimental: C57BU6 mice were received at 7-8 weeks of age and fed a high fat diet (60% of calories from fat) for 8 weeks. Seven days prior to treatment, animals were randomized based on their body weight and fasted glycemia values into control and treated groups (n=8). The animals were treated by oral gavage twice daily with 4-OH (50 mg/kg of body weight; group 2), once daily in the afternoon with Rimonabant (0.1 mg/kg; group 3), and a combination of the two treatments (4-OH 50 mg/kg twice daily +Rimonabant 0.1 mg/kg once daily; group 4). The control group (group 1) received vehicle alone twice daily. After 3 weeks of treatment (day 22), the doses were increased as follows: 4-OH 100 mg/kg twice daily (group 2), Rimonabant 1 mg/kg once daily (group 3), and the combination (4-OH 100 mg/kg twice daily+Rimonabant 1 mg/kg once daily; group 4). The animals were treated for 1 week with these higher doses. Body weight of the mice was recorded every day for all groups from Day 6 to Day 28.

[3] = Body weight gain in C57BU6 mice shifted to a high fat diet, analogs and isomers, 3 days (Example 9); format: in vivo; details: 100 mg/kg twice daily oral gavage; for body weight gain induced by the high fat diet: C57BU6 mice on high fat diet
Experimental: C57BU6 mice were received at 6-7 weeks of age and fed a standard commercial chow for 1 week (acclimation period). The animals were randomized based on their body weight values, into control and treatment groups (n=6). Then, animals were shifted to a high fat diet (60% of calories from fat) and treated twice daily by oral gavage with 4-hydroxyisoleucine (4-OH, compound 14a) or different analogs and isomers of 4-OH at the dose of 100 mg per kg of body weight for 3 days. The control group (Control HFD) received vehicle (water) alone and a group was kept under standard chow (Control Lean). Body weight of the mice was recorded daily. Two different experiments were run and the effect on body weight gain of selected analogs and isomers according to the invention is presented in FIG. 22A (Experiment 1) and FIG. 22B (Experiment 2).

[4] = cited from earlier work
[5] = Body weight of DIO mice, 4-hydroxyisoleucine and metformin alone and in combination (Example 6); format: in vivo, C57BU6 mice; details: DIO mice, 21 days
Experimental: C57BU6 mice were received at 7-8 weeks of age and fed a high fat diet (60% of calories from fat) for 8 weeks. Fasted glycemia was checked and animals with readings between 200 and 220 mg/dL were included in the study. The animals were randomized based on their body weights and glycemia values into control and treatment groups (n=8). […] The control group received vehicle (water) alone. The animals were treated for 21 days. Body weight of the mice was measured on the first day of treatment and on days 3, 7, 10, 14, 17, and 21. All data are expressed as mean±SEM.

[6] = Oral Glucose Tolerance Test (OGTT) in DIO mice, 4-hydroxyisoleucine and Exendin-4 alone or in combination (Example 5); format: in vivo, C57BI/6 mice; details: single agent, 4-OH 50 mg/kg or Exendin-4 0.01 mg/kg, after 7, 14 and 21 days of treatment
Experimental: (§1) Glycemic response was monitored by an Oral Glucose Tolerance Test (OGTT) performed on days 0, 7, 14, and 21 of treatment.
(§2) A total of 56 animals were used in the study. The animals were distributed into 7 groups (5 treated, 1 normal diet control, and 1 high fat diet control group). Each group was composed of 8 animals. […] For the three weeks of treatment, the test agents were dissolved in sterile saline for injection (USP). 4-Hydroxyisoleucine was kept at 4° C. (administration to groups 3, 4, and 7) while a frozen aliquot of Exendin-4 was thawed each dosing day for administration to groups 5, 6, and 7. Control animals received sterile saline, twice daily (groups 1 and 2). […] Animals from groups 5 and 6 received sterile saline as the AM treatment, while the PM treatment consisted of 0.05 and 0.01 mg/kg of Exendin-4, respectively. For Group 7, the AM treatment consisted of 50 mg/kg 4-OH only, while the PM treatment consisted of 0.01 mg/kg of Exendin-4+50 mg/kg of 4-OH. All groups were treated by subcutaneous injection.
On days 0, 7, 14, and 21, animals fasted for approximately 5 hours were challenged with an Oral Glucose Tolerance Test (OGTT) at 5 hours post-AM test agent administration. Whole blood glucose levels were monitored using a hand-held glucometer prior to OGTT and for up to 2 hours post-glucose challenge.

[7] = Weight gain and epididymal fat of DIO-C57Bl/6 mice, 4-hydroxyisoleucine and Exendin-4 alone or in combination (Example 5); format: in vivo, C57BI/6 mice; details: s.c., 21 days
Experimental: as §1, §2

N[C@H](C(=O)O)[C@@H]1CCCC[C@H]1O [Compound 13e, (S)-2-amino-2-((1S,2R)-2-hydroxycyclohexyl)acetic acid]
body weight gain compared to vehicle treated mice [1]: reduction in body weight gain
dose dependence of the effect on body weight gain ([1]; DIO mice): dose-dependent
epididymal fat pad weight ([1]; DIO mice, grams per 10 grams of body weight): reduction of epididymal fat pad weight

Cc1c(C(=O)NN2CCCCC2)nn(-c2ccc(Cl)cc2Cl)c1-c1ccc(Cl)cc1 [Rimonabant, 5-(4-Chlorophenyl)-1-(2,4-dichlorophenyl)-4-methyl-N-(piperidin-1-yl)-1H-pyrazole-3-carboxamide, reference compound]
body weight gain after 21 days (low dosage treatment) ([2]; 4-OH 50 mg/kg twice daily, Rimonabant 0.1 mg/kg once daily, alone or in combination): slight reduction of body weight gain
body weight after dose increase (day 22 to 28) ([2]; 4-OH 100 mg/kg twice daily, Rimonabant 1 mg/kg once daily, alone or in combination (combination compared to each compound separately)): immediately reduced the body weight

C[C@H]([C@@H](C)O)[C@@H](N)C(=O)O [compound 14aa, (2R,3S,4R)-4-Hydroxyisoleucine]
body weight gain induced by the high fat diet [3]: reduced body weight gain induced by the high fat diet

CC(C)(C)C(O)CC(N)C(=O)O (centres unmarked) [compound 62, 2-amino-4-hydroxy-5,5-dimethyl-hexanoic acid]
efficacy on body weight gain relative to compound #14a [3]: greater efficacy than the SRS isomer of 4-OH
body weight gain induced by the high fat diet [3]: reduced body weight gain induced by the high fat diet

CC1(O)CC(C(=O)O)NCC1O (centres unmarked) [compound 65a, 4-methyl-4,5-dihydroxypipecolic acid]
efficacy on body weight gain relative to compound #14a [3]: greater efficacy than the SRS isomer of 4-OH
body weight gain induced by the high fat diet [3]: reduced body weight gain induced by the high fat diet

O=C(O)[C@@H]1C[C@H](O)CN1 [compound 75, cis-4-hydroxyproline]
body weight gain induced by the high fat diet [3]: reduced body weight gain induced by the high fat diet

COC(=O)[C@@H]1C[C@H](O)CN1 [compound 76, cis-4-hydroxyproline methyl ester HCl salt]
body weight gain induced by the high fat diet [3]: reduced body weight gain induced by the high fat diet

CC(=O)N[C@@H]1C(=O)O[C@@H](C)[C@@H]1C [compound 104]
body weight gain induced by the high fat diet [3]: reduced body weight gain induced by the high fat diet

COC(=O)[C@H]1C[C@@H](O)CN1 [compound 202]
body weight gain induced by the high fat diet [3]: reduced body weight gain induced by the high fat diet

CN(C)C(=N)N=C(N)N [metformin]
blood glucose levels ([4]; by increasing insulin sensitivity (Stumvoll et al. 1995)): lowers blood glucose levels
body weight ([4]; most studies conducted in patients with type 2 diabetes (Hundal et al. 2003)): reduce body weight
weight ([4]; obese individuals without diabetes (Glueck et al. 2001)): induced weight loss
body weight as compared to vehicle-treated mice ([5]; 100 mg/kg twice daily oral, only 4-OH significant (p<0.01 4-OH, p=0.27 metformin)): reduction of their body weight
body weight compared to control DIO mice, given alone ([5]; 4-OH 50 mg/kg or metformin 25 mg/kg twice daily oral): no significant effect on body weight

Exendin-4: glucagon-like peptide 1 (GLP-1) receptor agonist
glycemic levels following OGTT challenge [6]: effective
body weight gain ([7]; 4-OH 50 mg/kg twice daily, Exendin-4 0.01 mg/kg (PM), alone or in combination): decrease in body weight gain
weight of epididymal fat ([7]; 4-OH 100 mg/kg, Exendin-4 0.01 mg/kg, combination 4-OH 50 mg/kg + Exendin-4 0.01 mg/kg): not effective
weight of epididymal fat ([7]; Exendin-4 0.05 mg/kg): effective
